One series is described as follows: in vitro. To be noted: rat, gh3-tre-luc cells, AC50 (uM) modified / 1000.
A further series relates to GH3-TRE-Luc cell line. To be noted: read-out: AC50 (uM) modified / 1000, viability, 1 nM T3 present, 24 h.

Where a name gives a salt, the structure may show the parent alone. Read-outs that look alike come from different tables or passages of the source.

For the molecule `CC(C)(c1ccc(OCC2CO2)cc1)c1ccc(OCC2CO2)cc1` (centres unmarked) [Bisphenol A diglycidyl ether], in the series “in vitro”, the CC50 at 24 h was found to be 66.1 µM. For the same molecule, the CC50 in the series with GH3-TRE-Luc cell line (Tox21_110001=Tox21_303315) came to 61.9 µM.
Regarding `Oc1ccc(C(c2ccc(O)cc2)(C(F)(F)F)C(F)(F)F)cc1` [Bisphenol AF], in “in vitro”, the CC50 at 24 h came out at 32.9 µM. In the series with GH3-TRE-Luc cell line (Tox21_110001=Tox21_303641), the CC50 amounted to 54.4 µM.
The molecule `CCC(C)(c1ccc(O)cc1)c1ccc(O)cc1` [Bisphenol B] had a CC50 at 24 h in the series “in vitro” of 78.3 µM. In addition, the CC50 in the series on GH3-TRE-Luc cell line (Tox21_110001=Tox21_300198) turned out to be 88.4 µM.
`CC(C)C[C@H](NC(=O)[C@H](Cc1ccccc1)NC(=O)c1cnccn1)B(O)O` [Bortezomib]: in the series “in vitro”, the CC50 at 24 h amounted to 0.0167 µM. In the series on GH3-TRE-Luc cell line (Tox21_110001=Tox21_112672), the CC50 was 0.00954 µM.
For `O=[N+]([O-])C(Br)(CO)CO` [Bronopol], the CC50 at 24 h in “in vitro” was determined as 22 µM. The CC50 in the series on GH3-TRE-Luc cell line (Tox21_110001=Tox21_112079) is 21.8 µM.
The molecule `O=S(=O)(O)c1cc(S(=O)(=O)O)c2c(N=Nc3ccccc3)c(O)ccc2c1` [C.I. Acid Orange 10] gave a CC50 at 24 h in “in vitro” of 46.4 µM. The CC50 with GH3-TRE-Luc cell line (Tox21_110001=Tox21_303019) came to 48.6 µM.
As for `Cc1ccc(S(=O)(=O)Oc2ccc(N=Nc3ccc(-c4ccc(N=Nc5c(O)ccc6cc(S(=O)(=O)O)cc(S(=O)(=O)O)c56)c(C)c4)cc3C)cc2)cc1` [C.I. Acid Red 114], the CC50 at 24 h in the series “in vitro” was 32.3 µM. For the same molecule, in the series on GH3-TRE-Luc cell line (Tox21_110001=Tox21_302977), the CC50 turned out to be 17.5 µM.
As for `Nc1c(/N=N/c2ccc(-c3ccc(/N=N/c4cc(S(=O)(=O)O)c5ccccc5c4N)cc3)cc2)cc(S(=O)(=O)O)c2ccccc12` [C.I. Direct Red 28], the CC50 at 24 h in the series “in vitro” is 27 µM. Further, the CC50 with GH3-TRE-Luc cell line (Tox21_110001=Tox21_111605) was 16.3 µM.
In “in vitro”, `Oc1ccc2ccccc2c1N=Nc1ccccc1` [C.I. Solvent Yellow 14] yielded a CC50 at 24 h of more than 90 µM. Besides, in the series with GH3-TRE-Luc cell line (Tox21_110001=Tox21_300297), the CC50 amounted to 62.3 µM.
Regarding `Cc1c(C(=O)O)c(O)cc2c1C(=O)c1c(O)c([C@@H]3O[C@H](CO)[C@@H](O)[C@H](O)[C@H]3O)c(O)c(O)c1C2=O` [Carminic acid], the CC50 at 24 h in the series “in vitro” was 55.9 µM. For the same molecule, the CC50 with GH3-TRE-Luc cell line (Tox21_110001=Tox21_300294) was 56.2 µM.
`CC(=O)[C@]1(O)Cc2c(O)c3c(c(O)c2[C@@H](O[C@H]2C[C@H](N)[C@H](O)[C@H](C)O2)C1)C(=O)c1c(O)cccc1C3=O` [Carminomycin]: the CC50 at 24 h in the series “in vitro” was determined as 0.177 µM. Also, in the series with GH3-TRE-Luc cell line (Tox21_110001=Tox21_111978), the CC50 is 0.212 µM.
On to `Oc1ccccc1O` [Catechol], for which the CC50 at 24 h in “in vitro” was determined as 33.7 µM. In addition, the CC50 in the series on GH3-TRE-Luc cell line (Tox21_110001=Tox21_300153) was determined as 32.6 µM.
Take `CN(C)CCC(c1ccc(Cl)cc1)c1ccccn1` (centres unmarked) [Chlorpheniramine maleate]: the CC50 at 24 h in the series “in vitro” is 40.4 µM. For the same molecule, the CC50 with GH3-TRE-Luc cell line (Tox21_110001=Tox21_303456) turned out to be 41.3 µM.
For the molecule `Oc1c(I)cc(Cl)c2cccnc12` [Clioquinol], the CC50 at 24 h in “in vitro” came out at 43.1 µM. In addition, the CC50 in the series with GH3-TRE-Luc cell line (Tox21_110001=Tox21_110416) came out at 43.7 µM.
With `CCN(CC)CCOc1ccc(C(=C(Cl)c2ccccc2)c2ccccc2)cc1` [Clomiphene], in the series “in vitro”, the CC50 at 24 h turned out to be 6.61 µM. The CC50 in the series on GH3-TRE-Luc cell line (Tox21_110001=Tox21_113110) is 7.27 µM.
`Clc1ccccc1C(c1ccccc1)(c1ccccc1)n1ccnc1` [Clotrimazole] showed a CC50 at 24 h in the series “in vitro” of 5.21 µM. For the same molecule, the CC50 in the series on GH3-TRE-Luc cell line (Tox21_110001=Tox21_110111) was determined as 8.57 µM.
Take `N=c1ccn2c(n1)O[C@H]1[C@H](O)[C@@H](CO)O[C@H]12` [Cyclocytidine]: in the series “in vitro”, the CC50 at 24 h was 1.45 µM. The CC50 in the series with GH3-TRE-Luc cell line (Tox21_110001=Tox21_111571) was 1.18 µM.
`Oc1ccc(Cl)cc1Cc1cc(Cl)ccc1O` [Dichlorophen] displayed a CC50 at 24 h in the series “in vitro” of 16.7 µM. In addition, the CC50 in the series on GH3-TRE-Luc cell line (Tox21_110001=Tox21_111112) was 15.4 µM; in the series with GH3-TRE-Luc cell line (Tox21_110001=Tox21_303013), 27.4 µM.
Molecule `C(=NC1CCCCC1)=NC1CCCCC1` [Dicyclohexylcarbodiimide] came in with a CC50 at 24 h in the series “in vitro” of more than 90 µM. The CC50 in the series with GH3-TRE-Luc cell line (Tox21_110001=Tox21_303237) is 49.8 µM.
As for `CC/C(=C(/CC)c1ccc(O)cc1)c1ccc(O)cc1` [Diethylstilbestrol], the CC50 at 24 h in the series “in vitro” is 55.5 µM. In the series on GH3-TRE-Luc cell line (Tox21_110001=Tox21_300526), the CC50 came to 28.7 µM.
With `CC(C)[C@@]1(NC(=O)[C@@H]2C[C@@H]3c4cccc5[nH]cc(c45)C[C@H]3N(C)C2)O[C@@]2(O)[C@@H]3CCCN3C(=O)[C@H](Cc3ccccc3)N2C1=O` [Dihydroergocristine], the CC50 at 24 h in “in vitro” came out at 21 µM. Besides, the CC50 in the series with GH3-TRE-Luc cell line (Tox21_110001=Tox21_113115) turned out to be 21.9 µM.
In the case of `CCCCCCCC[N+](C)(C)CCCCCCCC` [Dioctyldimethylammonium chloride], in “in vitro”, the CC50 at 24 h turned out to be 19.4 µM. Further, the CC50 with GH3-TRE-Luc cell line (Tox21_110001=Tox21_113024) is 20.1 µM.
Molecule `CCCCCCCCCCCCc1ccccc1O` [Dodecylphenol] returned a CC50 at 24 h in “in vitro” of 11.8 µM. Moreover, the CC50 in the series with GH3-TRE-Luc cell line (Tox21_110001=Tox21_303360) is 15.3 µM.
Molecule `CCCCCCCCCCCC[N+](C)(C)CCOc1ccccc1` [Domiphen bromide] returned a CC50 at 24 h in “in vitro” of 10.6 µM. In the series on GH3-TRE-Luc cell line (Tox21_110001=Tox21_111054), the CC50 turned out to be 12.4 µM.
In turn, `Cc1cc(O)c2c(c1)C(=O)c1cc(O)cc(O)c1C2=O` [Emodin] came in with a CC50 at 24 h in the series “in vitro” of 29.1 µM. In addition, the CC50 with GH3-TRE-Luc cell line (Tox21_110001=Tox21_303218) was found to be 34.9 µM.
Take `Cc1ccc(/C=C2/C(=O)C3(C)CCC2C3(C)C)cc1` (centres unmarked) [Enzacamene]: in “in vitro”, the CC50 at 24 h is more than 90 µM. Also, the CC50 in the series on GH3-TRE-Luc cell line (Tox21_110001=Tox21_112423) is 46.5 µM.
For the molecule `C=C1CC[C@H](O)C/C1=C/C=C1\CCC[C@]2(C)[C@@H]([C@H](C)/C=C/[C@H](C)C(C)C)CC[C@@H]12` [Ergocalciferol], in the series “in vitro”, the CC50 at 24 h amounted to 42.5 µM. The CC50 in the series on GH3-TRE-Luc cell line (Tox21_110001=Tox21_302752) is 77.9 µM.
Molecule `O=C1OC2(c3ccccc31)c1cc(I)c(O)c(I)c1Oc1c2cc(I)c(O)c1I` [Erythrosin B] came in with a CC50 at 24 h in “in vitro” of 16.4 µM. Also, the CC50 with GH3-TRE-Luc cell line (Tox21_110001=Tox21_301634) was determined as 19.8 µM.
`CC[n+]1c(-c2ccccc2)c2cc(N)ccc2c2ccc(N)cc21` [Ethidium bromide] gave a CC50 at 24 h in “in vitro” of 47.9 µM. Further, the CC50 in the series with GH3-TRE-Luc cell line (Tox21_110001=Tox21_111123) turned out to be 37.9 µM.
`CCCCCCCCCCCCCCCC[N+](C)(C)CC` [Ethylhexadecyldimethylammonium bromide] had a CC50 at 24 h in “in vitro” of 11.9 µM. Besides, in the series with GH3-TRE-Luc cell line (Tox21_110001=Tox21_112326), the CC50 was 6.28 µM.
Turning to `C#C[C@]1(OC(C)=O)CC[C@H]2[C@@H]3CCC4=C[C@@H](OC(C)=O)CC[C@@H]4[C@H]3CC[C@@]21C` [Ethynodiol diacetate], in the series “in vitro”, the CC50 at 24 h is 45 µM. For the same molecule, in the series with GH3-TRE-Luc cell line (Tox21_110001=Tox21_112924), the CC50 came out at 44.6 µM.
In turn, `CCc1cc(Cl)c(OC)c(C(=O)NC[C@@H]2CCCN2CC)c1O` [Eticlopride hydrochloride] registered a CC50 at 24 h in the series “in vitro” of 19.6 µM. In addition, the CC50 was found to be 25.3 µM with GH3-TRE-Luc cell line (Tox21_110001=Tox21_111229) and 33.6 µM with GH3-TRE-Luc cell line (Tox21_110001=Tox21_113585).
For the molecule `O=C(c1cc(O)c(O)c(O)c1)c1ccc(O)c(O)c1O` [Exifone], the CC50 at 24 h in “in vitro” came to 43.6 µM. For the same molecule, the CC50 in the series with GH3-TRE-Luc cell line (Tox21_110001=Tox21_303559) came out at 62.8 µM.
In the case of `O=C(O)C1=NN(c2ccc(S(=O)(=O)O)cc2)C(=O)C1N=Nc1ccc(S(=O)(=O)O)cc1` (centres unmarked) [FD&C Yellow 5], in “in vitro”, the CC50 at 24 h was more than 50 µM. Besides, the CC50 with GH3-TRE-Luc cell line (Tox21_110001=Tox21_201539) was determined as 43.1 µM; in the series with GH3-TRE-Luc cell line (Tox21_110001=Tox21_300554), 61.1 µM.

For the origin of these results see paper PMC6792352, “Limited Chemical Structural Diversity Found to Modulate Thyroid Hormone Receptor in the Tox21 Chemical Library” (Environmental Health Perspectives, 2019).
